According to DBAASP:
In brackets after ≈: the same amount, converted by molar mass.

Key:
Assay in all cases: ≥ marks a high value that may be exact or a test limit, other limits are often not marked, values filed in µg/mL are converted to µM
[1] = tested on: Bacillus subtilis IFO 3513
[2] = tested on: Escherichia coli IFO 12734
[3] = tested on: Micrococcus luteus ATCC 9341
[4] = tested on: Staphylococcus aureus IFO 12732
[5] = tested on: Bacillus subtilis ATCC 6633
[6] = tested on: Candida albicans ATCC 20032
[7] = tested on: Escherichia coli ATCC 25922
[8] = tested on: Staphylococcus aureus ATCC 25923
Acinetobacter baumannii = tested on: Acinetobacter baumannii
[9] = tested on: Candida albicans ATCC 90028
[10] = tested on: Escherichia coli ATCC 25726
[11] = tested on: Klebsiella pneumoniae ATCC 700603
[12] = tested on: Proteus mirabilis ATCC 25933
[13] = tested on: Pseudomonas aeruginosa ATCC 27853
[14] = tested on: Staphylococcus aureus ATCC 29213
[15] = tested on: Staphylococcus epidermidis RP62A/1
[16] = tested on: Staphylococcus epidermidis RP62A
[17] = tested on: Stenotrophomonas maltophilia
[18] = tested on: Corynebacterium xerosis C875
Escherichia coli DC2 = tested on: Escherichia coli DC2
Escherichia coli UB1005 = tested on: Escherichia coli UB1005
[19] = tested on: Staphylococcus epidermidis C621

CC[C@H](C)[C@H](NC(=O)[C@H](CC(C)C)NC(=O)[C@@H]1CCCN1C(=O)[C@H](Cc1c[nH]c2ccccc12)NC(=O)[C@H](CCCCN)NC(=O)[C@H](Cc1c[nH]c2ccccc12)NC(=O)[C@@H]1CCCN1C(=O)[C@H](Cc1c[nH]c2ccccc12)NC(=O)[C@H](Cc1c[nH]c2ccccc12)NC(=O)[C@@H]1CCCN1C(=O)[C@H](Cc1c[nH]c2ccccc12)NC(=O)[C@H](CCCN=C(N)N)NC(=O)[C@@H](N)CCCN=C(N)N)C(N)=O [RRWPWWPWKWPLI]
MIC [1]: 0.818 µM (≈ 1.56 µg/mL)
MIC [2]: 6.55 µM (≈ 12.5 µg/mL)
MIC [3]: 0.4 µM (≈ 0.763 µg/mL)
MIC [4]: 0.818 µM (≈ 1.56 µg/mL)

CC[C@H](C)[C@H](N)C(=O)N[C@@H](CC(C)C)C(=O)N1CCC[C@H]1C(=O)N[C@@H](CC(C)C)C(=O)N[C@@H](CCCCN)C(=O)N[C@@H](Cc1c[nH]c2ccccc12)C(=O)N1CCC[C@H]1C(=O)N[C@@H](Cc1c[nH]c2ccccc12)C(=O)N[C@@H](Cc1c[nH]c2ccccc12)C(=O)N1CCC[C@H]1C(=O)N[C@@H](Cc1c[nH]c2ccccc12)C(=O)N[C@@H](CCCN=C(N)N)C(=O)N[C@@H](CCCN=C(N)N)C(N)=O [ILPLKWPWWPWRR]
MIC [1]: 1.71 µM (≈ 3.13 µg/mL)
MIC [2]: 13.6 µM (≈ 25 µg/mL)
MIC [4]: 1.71 µM (≈ 3.13 µg/mL)

CC[C@H](C)[C@H](NC(=O)CN)C(=O)NCC(=O)NCC(=O)N[C@H](C(=O)N[C@@H](CC(C)C)C(=O)N[C@@H](CC(C)C)C(=O)N[C@@H](CO)C(=O)N[C@@H](C)C(=O)NCC(=O)N[C@@H](CCCCN)C(=O)N[C@@H](C)C(=O)N[C@@H](C)C(=O)N[C@@H](CC(C)C)C(=O)N[C@@H](CCCCN)C(=O)NCC(=O)N[C@@H](CC(C)C)C(=O)N[C@H](C(=O)N[C@@H](CCCCN)C(=O)N[C@H](C(=O)N[C@@H](CC(C)C)C(=O)N[C@@H](C)C(=O)N[C@@H](CCC(=O)O)C(=O)N[C@@H](CCCCN)C(=O)N[C@@H](Cc1ccc(O)cc1)C(=O)N[C@@H](C)C(=O)N[C@@H](CC(N)=O)C(N)=O)C(C)C)[C@@H](C)O)C(C)C [GIGGVLLSAGKAALKGLTKVLAEKYAN]
MIC [5]: ≥ 37.8 µM
MIC [6]: ≥ 37.8 µM
MIC [7]: > 37.8 µM
MIC [8]: 7.11 µM (≈ 18.8 µg/mL)

CC[C@H](C)[C@H](NC(=O)[C@H](CCCCN)NC(=O)[C@H](C)NC(=O)CNC(=O)[C@@H](NC(=O)[C@@H](N)CO)[C@@H](C)CC)C(=O)N[C@@H](CC(C)C)C(=O)NCC(=O)NCC(=O)N[C@H](C(=O)N[C@@H](CCCCN)C(=O)N[C@H](C(=O)N[C@@H](Cc1ccccc1)C(=O)N[C@@H](Cc1ccccc1)C(=O)N[C@@H](CCCCN)C(=O)NCC(=O)N[C@@H](C)C(=O)N[C@@H](CC(C)C)C(=O)N[C@@H](CCCCN)C(=O)N[C@@H](CCC(=O)O)C(=O)N[C@@H](CC(C)C)C(=O)N[C@@H](C)C(=O)N[C@@H](Cc1ccccc1)C(=O)N[C@H](C(=O)N[C@@H](Cc1ccc(O)cc1)C(=O)N[C@@H](CC(C)C)C(=O)N[C@@H](CCC(N)=O)C(N)=O)[C@@H](C)O)[C@@H](C)O)C(C)C [SIGAKILGGVKTFFKGALKELAFTYLQ]
MIC [5]: ≥ 34.5 µM
MIC [6]: ≥ 34.5 µM
MIC [7]: > 34.5 µM
MIC [8]: 12.9 µM (≈ 37.5 µg/mL)

CC[C@H](C)[C@H](N)C(=O)N[C@@H](CCCCN)C(=O)N[C@@H](CC(C)C)C(=O)N[C@@H](CO)C(=O)N[C@@H](CCCCN)C(=O)N[C@@H](CCC(=O)O)C(=O)N[C@H](C(=O)N[C@@H](CCCCN)C(=O)N[C@@H](CC(=O)O)C(=O)N[C@@H](CC(N)=O)C(=O)N[C@@H](CC(C)C)C(=O)N[C@@H](CCCCN)C(=O)N[C@@H](CCCCN)C(=O)N[C@H](C(=O)N[C@@H](CC(C)C)C(=O)N[C@@H](CCCCN)C(=O)NCC(=O)N[C@@H](C)C(=O)N[C@H](C(=O)N[C@@H](CCCCN)C(=O)NCC(=O)N[C@@H](C)C(=O)N[C@H](C(=O)N[C@@H](C)C(=O)N[C@H](C(=O)N[C@@H](C)C(=O)N[C@@H](CCCCN)C(=O)N[C@@H](CCSC)C(=O)N[C@H](C(N)=O)C(C)C)C(C)C)[C@@H](C)CC)[C@@H](C)CC)C(C)C)[C@@H](C)O [IKLSKETKDNLKKVLKGAIKGAIAVAKMV]
MIC (Acinetobacter baumannii): 6.25 µM (≈ 19.3 µg/mL)
MIC [9]: ≥ 50 µM
MIC [10]: 12.5 µM (≈ 38.7 µg/mL)
MIC [11]: 12.5 µM (≈ 38.7 µg/mL)
MIC [12]: ≥ 100 µM
MIC [13]: 25 µM (≈ 77.4 µg/mL)
MIC [8]: 6.25 µM (≈ 19.3 µg/mL)
MIC [14]: 6.25 µM (≈ 19.3 µg/mL)
MIC [15]: 1.6 µM (≈ 4.95 µg/mL)
MIC [16]: 1.6 µM (≈ 4.95 µg/mL)
MIC [17]: 3.1 µM (≈ 9.59 µg/mL)

CC[C@H](C)[C@H](N)C(=O)N[C@@H](CCCCN)C(=O)N[C@@H](CC(C)C)C(=O)N[C@@H](CO)C(=O)N[C@@H](CCCCN)C(=O)N[C@@H](CCC(=O)O)C(=O)N[C@H](C(=O)N[C@@H](CCCCN)C(=O)N[C@@H](CCCCN)C(=O)N[C@@H](CC(N)=O)C(=O)N[C@@H](CC(C)C)C(=O)N[C@@H](CCCCN)C(=O)N[C@@H](CCCCN)C(=O)N[C@H](C(=O)N[C@@H](CC(C)C)C(=O)N[C@@H](CCCCN)C(=O)NCC(=O)N[C@@H](C)C(=O)N[C@H](C(=O)N[C@@H](CCCCN)C(=O)NCC(=O)N[C@@H](C)C(=O)N[C@H](C(=O)N[C@@H](C)C(=O)N[C@H](C(=O)N[C@@H](C)C(=O)N[C@@H](CCCCN)C(=O)N[C@@H](CCSC)C(=O)N[C@H](C(N)=O)C(C)C)C(C)C)[C@@H](C)CC)[C@@H](C)CC)C(C)C)[C@@H](C)O [IKLSKETKKNLKKVLKGAIKGAIAVAKMV]
MIC (Acinetobacter baumannii): 3.1 µM (≈ 9.63 µg/mL)
MIC [9]: ≥ 50 µM
MIC [10]: 6.25 µM (≈ 19.4 µg/mL)
MIC [11]: 6.25 µM (≈ 19.4 µg/mL)
MIC [12]: ≥ 100 µM
MIC [13]: 12.5 µM (≈ 38.8 µg/mL)
MIC [8]: 3.1 µM (≈ 9.63 µg/mL)
MIC [14]: 6.25 µM (≈ 19.4 µg/mL)
MIC [15]: 1.6 µM (≈ 4.97 µg/mL)
MIC [16]: 1.6 µM (≈ 4.97 µg/mL)
MIC [17]: 3.1 µM (≈ 9.63 µg/mL)

CC[C@H](C)[C@H](N)C(=O)N[C@@H](CC(C)C)C(=O)N1CCC[C@H]1C(=O)N[C@@H](Cc1c[nH]c2ccccc12)C(=O)N[C@@H](CCCCN)C(=O)N[C@@H](Cc1c[nH]c2ccccc12)C(=O)N1CCC[C@H]1C(=O)N[C@@H](Cc1c[nH]c2ccccc12)C(=O)N[C@@H](CC(C)C)C(=O)N1CCC[C@H]1C(=O)N[C@@H](Cc1ccc(O)cc1)C(=O)N[C@@H](CCCN=C(N)N)C(=O)N[C@@H](CCCN=C(N)N)C(N)=O [ILPWKWPWLPYRR]
MIC [1]: 1.73 µM (≈ 3.13 µg/mL)
MIC [2]: 27.6 µM (≈ 50 µg/mL)
MIC [4]: 3.45 µM (≈ 6.25 µg/mL)

CC[C@H](C)[C@@H]1NC(=O)[C@H](CO)NC(=O)[C@H](CCCCN)NC(=O)[C@H]([C@@H](C)O)NC(=O)[C@H](Cc2c[nH]c3ccccc23)NC(=O)[C@@H](NC(=O)CNC(=O)[C@H](CCCN=C(N)N)NC(=O)[C@H](CC(C)C)NC(=O)[C@H](C)NC(=O)[C@H](C)N)CSSC[C@@H](C(=O)N2CCC[C@H]2C(=O)NCC(=O)N[C@@H](CCCCN)C(=O)N[C@@H](CCCN=C(N)N)C(=O)O)NC(=O)[C@@H]2CCCN2C(=O)[C@H](CCCCN)NC(=O)[C@@H]2CCCN2C(=O)[C@@H]2CCCN2C1=O [AALRGCWTKSIPPKPCPGKR]
MIC [5]: ≥ 46.2 µM
MIC [6]: ≥ 46.2 µM
MIC [7]: 46.2 µM (≈ 100 µg/mL)
MIC [8]: 5.8 µM (≈ 12.6 µg/mL)

C[C@H](NC(=O)[C@H](C)NC(=O)[C@H](C)NC(=O)[C@H](Cc1ccc(O)cc1)NC(=O)[C@H](C)NC(=O)[C@H](C)NC(=O)[C@H](C)NC(=O)[C@H](CCCCN)NC(=O)[C@@H](N)CCCCN)C(=O)N[C@@H](C)C(=O)N[C@@H](C)C(=O)N[C@@H](Cc1ccc(O)cc1)C(=O)N[C@@H](C)C(=O)N[C@@H](C)C(=O)N[C@@H](Cc1c[nH]c2ccccc12)C(=O)N[C@@H](C)C(=O)N[C@@H](C)C(=O)N[C@@H](Cc1ccc(O)cc1)C(=O)N[C@@H](C)C(=O)N[C@@H](C)C(=O)N[C@@H](C)C(=O)N[C@@H](CCCCN)C(=O)N[C@@H](CCCCN)C(=O)N[C@@H](CCCCN)C(=O)N[C@@H](CCCCN)C(N)=O [KKAAAYAAAAAYAAWAAYAAAKKKK]
MIC [18]: 0.25 µM (≈ 0.632 µg/mL)
MIC (Escherichia coli DC2): 16 µM (≈ 40.4 µg/mL)
MIC (Escherichia coli UB1005): ≥ 32 µM
MIC [19]: 8 µM (≈ 20.2 µg/mL)
